Assay results as given in patent US20230012368A1 (Hoffmann-La Roche Inc., priority 2018, published 2023).
Counter-ions that a name gives are not always drawn. Like-named read-outs stand apart in the source and are kept apart here.

Tested on: Acinetobacter baumannii ATCC 17978
Assay: Antimicrobial susceptibility testing: 90% growth inhibitory concentration (IC90) determination
Format: cell-based
Conditions: 90% growth inhibitory concentration, Acinetobacter baumannii ATCC17978, Iso-Sensitest broth, OD 600 nm over 16h, read-out: ATCC17978 IC90
Summary of the method: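 Compounds serially twofold diluted (e.g. 50 to 0.097 μM final) in Iso-Sensitest broth, inoculated at ~5×10^(5) CFU/ml, incubated at 35±2° C. OD600 read every 20 minutes over 16h. IC90 taken as concentration inhibiting 90% of growth during logarithmic phase.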

[1] = Acinetobacter baumannii, ATCC17978, 16 h

Structure (SMILES)	IC90 [1]	IC90
Cc1cc(Nc2nccn3c(-c4ccc(OC(F)F)cc4)cnc23)ccc1C(=O)NCCN1C[C@@H](C)O[C@@H](C)C1 [Example 278, 4-[[3-[4-(difluoromethoxy)phenyl]im-idazo[1,2-a]pyrazin-8-yl]amino]-2-methyl-N-[2-[rac-(2R,6S)-2,6-dimethylmorpholin-4-yl]ethyl]benzamide]	1400 nM	
CCc1cc(Nc2nccn3c(-c4ccc(OC)c(F)c4F)cnc23)ccc1C(=O)NCc1ccncc1 [Example 560, 4-((3-(2,3-difluoro-4-methoxyphenyl)imidazo[1,2-a]pyrazin-8-yl)amino)-2-ethyl-N-(pyridin-4-ylmethyl)benzamide formate]	80 nM	
CCc1cc(Nc2nccn3c(-c4ccc(Oc5ccccn5)c(F)c4F)cnc23)ccc1C(=O)N[C@@H](C)CNC(=O)[C@@H](N)CCNC(=N)N [Example 456, N-[(1S)-2-[[(2S)-2-amino-4-guanidino-butanoyl]amino]-1-methyl-ethyl]-4-[[3-[2,3-difluoro-4-(2-pyridyloxy)phenyl]imidazo [1,2-a]pyrazin-8-yl]amino]-2-ethyl-benzamide; formic acid]	710 nM	
COc1ccc(-c2cnc3c(Nc4ccc(C(=O)NCC5CCNC5)c(Cl)c4)nccn23)c(F)c1F (centres unmarked) [Example 60, 2-chloro-4-[[3-(2,3-difluoro-4-methoxy-phenyl)imidazo[1,2-a]pyrazin-8-yl]amino]-N-(pyrrolidin-3-ylmethyl)benzamide]	220 nM	
COc1ccc(-c2cnc3c(Nc4ccc(C(=O)N(C)CCC5CCNCC5)c(C)c4)nccn23)cc1 [Example 182, 4-[[3-(4-methoxyphenyl)imidazo[1,2-a]pyrazin-8-yl]amino]-N,2-dimethyl-N-(2-piperidin-4-ylethyl)benzamide; hydrochlo-ride]	180 nM	
COc1ccc(-c2cnc3c(Nc4ccc(C(=O)N(C)Cc5cccnc5)c(C)c4)nccn23)cc1F [Example 38, 4-[[3-(3-fiuoro-4-methoxy-phenyl)imidazo[1,2-a]pyrazin-8-yl]amino]-N,2-dimethyl-N-(3-pyridylmethyl) benzamide]	190 nM	
CCc1cc(Nc2nccn3c(-c4ccc(OC)c(F)c4F)cnc23)ccc1C(=O)NCCCNC(=O)CC[C@H](NC(=O)[C@@H](N)CCCCN)C(=O)O [Example 403, N2-(L-lysyl)-N5-(3-(4-((3-(2,3-difluoro-4-methoxyphenyl)imidazo[1,2-a]pyrazin-8-yl)amino)-2-ethylbenzamido)propyl)-L-glutamine trihydrochloride]		940 nM
CC[C@@]1(O)CN[C@H](C(=O)NCCNC(=O)c2ccc(Nc3nccn4c(-c5ccc(OC)c(F)c5F)cnc34)cc2C)C1 [Example 371, (2S,4S)-N-[2-[[4-[[3-(2,3-difluoro-4-methoxyphenyl)imidazo[1,2-a]pyrazin-8-yl]amino]-2-methylbenzoyl]amino]ethyl]-4-ethyl-4-hydroxypyrrolidine-2-carboxamide]	150 nM	
Cc1cc(Nc2nccn3c(-c4ccc(OC(F)F)cc4)cnc23)ccc1C(=O)N(C)CC1(O)CCNCC1 [Example 260, 4-[[3-[4-(difluoromethoxy)phenyl]im-idazo[1,2-a]pyrazin-8-yl]amino]-N-[(4-hydroxypiperidin-4-yl)methyl]-N,2-dimethylbenzamide;hydrochlo-ride]	4300 nM	
CCc1cc(Nc2nccn3c(-c4ccc(OC)c(F)c4F)cnc23)ccc1C(=O)NC[C@@H]1CNC[C@@H]1O [Example 531, 4-((3-(2,3-difluoro-4-methoxyphenyl)imidazo[1,2-a]pyrazin-8-yl)amino)-2-ethyl-N-(((3S,4R)-4-hydroxypyrrolidin-3-yl)methyl)benzamide hydrochloride]	150 nM	
CN(CCN1CCNCC1)C(=O)c1ccc(Nc2nccn3c(-c4ccc(OCC#N)c(F)c4F)cnc23)cc1Cl [Example 74, 2-chloro-4-((3-(4-(cyanomethoxy)-2,3-difluorophenyl)imidazo [1,2-a]pyrazin-8-yl)amino)-N-methyl-N-(2-(piperazin-1-yl)ethyl)benzamide]	60 nM	
CC[C@@]1(O)CN[C@H](C(=O)NCCNC(=O)c2ccc(Nc3nccn4c(-c5ccc(OCC#N)c(F)c5F)cnc34)cc2C)C1 [Example 366, (2S,4S)-N-[2-[[4-[[3-[4-(cyanomethoxy)-2,3-difluorophenyl]imidazo[1,2-a]pyrazin-8-yl]amino]-2-methylbenzoyl]amino]ethyl]-4-ethyl-4-hydroxypyrrolidine-2-carboxamide]	100 nM	
COc1ccc(-c2cnc3c(Nc4ccc(C(=O)NCCCCN)c(Cl)c4)nccn23)c(F)c1F [Example 515, N-(4-aminobutyl)-2-chloro-4-((3-(2,3-difluoro-4-methoxyphenyl)imidazo[1,2-a]pyrazin-8-yl)amino)benzamide hydrochloride]		42 nM

The next lines start with results.

IC90 [1]	Structure (SMILES)	IC90
320 nM	CCc1cc(Nc2nccn3c(-c4ccc(OC)c(F)c4F)cnc23)ccc1C(=O)NCCNC(=O)[C@@H](N)CCCNC(N)=O [Example 332, N-[2-[[(2S)-2-amino-5-(carbamoylamino)pentanoyl]amino]ethyl]-4-[[3-(2,3-difluoro-4-methoxyphenyl)imidazo[1,2-a]pyrazin-8-yl]amino]-2-ethylbenzamide]	
210 nM	CCc1cc(Nc2nccn3c(-c4ccc(OC)c(F)c4Cl)cnc23)ccc1C(=O)NCCNC(=O)[C@@H](N)CCCNC(=N)N [Example 126, N-[2-[[(2S)-2-amino-5-guanidino-pentanoyl]amino]ethyl]-4-[[3-(2-chloro-3-fluoro-4-methoxy-phenyl)imidazo[1,2-a]pyrazin-8-yl]amino]-2-ethyl-benzamide formate]	
190 nM	CCc1cc(Nc2nccn3c(-c4ccc(OC)c(F)c4F)cnc23)ccc1C(=O)NCCN1CCC(C(N)=O)C1 (centres unmarked) [Example 561, 1-[2-[[4-[[3-(2,3-difluoro-4-methoxy-phenyl)imidazo[1,2-a]pyrazin-8-yl]amino]-2-ethyl-benzoyl]amino]ethyl]pyrroli-dine-3-carboxamide]	
60 nM	CCc1cc(Nc2nccn3c(-c4ccc(OC)c(F)c4F)cnc23)ccc1C(=O)NCCN1CCNCC1 [Example 323, 4-[[3-(2,3-difluoro-4-methoxyphenyl)imidazo[1,2-a]pyrazin-8-yl]amino]-2-ethyl-N-(2-piperazin-1-ylethyl)benzamide]	
1100 nM	COc1ccc(-c2cnc3c(Nc4ccc(C(=O)NCCCC[C@H](N)C(=O)O)c(C)c4)nccn23)c(F)c1F [Example 349, (2S)-2-amino-6-[[4-[[3-(2,3-difluoro-4-methoxyphenyl)imidazo[1,2-a]pyrazin-8-yl]amino]-2-methylbenzoyl]amino]hexa-noic acid;2,2,2-trifluoroacetic acid]	
60 nM	CCc1cc(Nc2nccn3c(-c4ccc(OCC#N)c(F)c4F)cnc23)ccc1C(=O)NCCNC(=O)CN [Example 136, N-[2-[(2-aminoacetyl)amino]ethyl]-4-[[3-[4-(cyanomethoxy)-2,3-difluoro-phenyl]imidazo[1,2-a]pyrazin-8-yl]amino]-2-ethyl-benzamide formate]	
240 nM	CCc1cc(Nc2nccn3c(-c4ccc(OC)c(F)c4F)cnc23)ccc1C(=O)NCCNC(=O)[C@@H](N)CCCNC1=NCCN1 [Example 128, N-[2-[[(2S)-2-amino-5-(4,5-dihydro-1H-imidazol-2-ylamino)pentanoyl]amino]ethyl]-4-[[3-(2,3-difluoro-4-methoxy-phenyl)imidazo[1,2-a]pyrazin-8-yl]amino]-2-ethyl-benzamide formate]	
410 nM	CCc1cc(Nc2nccn3c(-c4ccc(OC)c(F)c4F)cnc23)ccc1C(=O)NCC(=O)NCCNC [Example 428, 4-[[3-(2,3-difluoro-4-methoxy-phenyl)imidazo[1,2-a]pyrazin-8-yl]amino]-2-ethyl-N-[2-[2-(methylamino)ethylamino]-2-oxo-ethyl]benzamide; formic acid]	
230 nM	CCc1cc(Nc2nccn3c(-c4ccc(OC(F)F)c(F)c4F)cnc23)ccc1C(=O)NCCNC(=O)[C@H](N)CCCNC(=N)N [Example 132, N-[2-[[(2R)-2-amino-5-guanidino-pentanoyl]amino]ethyl]-4-[[3-[4-(difluoromethoxy)-2,3-difluoro-phenyl]imidazo[1,2-a]pyrazin-8-yl]amino]-2-ethyl-benzamide formate]	
460 nM	CCc1cc(Nc2nccn3c(-c4ccc(Oc5ccncn5)c(F)c4F)cnc23)ccc1C(=O)NCCNC(=O)[C@H](N)CCNC(=N)N [Example 441, N-[2-[[(2R)-2-amino-4-guanidino-butanoyl]amino]ethyl]-4-[[3-(2,3-difluoro-4-pyrimidin-4-yloxy-phenyl)imidazo[1,2-a]pyrazin-8-yl]amino]-2-ethyl-benzamide; formic acid]	
980 nM	CCc1cc(Nc2nccn3c(-c4ccc(Cl)cc4Cl)cnc23)ccc1C(=O)NCCNC(=O)[C@@H](N)CCCNC(=N)N [Example 346, N-[2-[[(2S)-2-amino-5-carbamimidamidopentanoyl]amino]ethyl]-4-[[3-(2,4-dichlorophenyl)imidazo[1,2-a]pyrazin-8-yl]amino]-2-ethylbenzamide;hydrochloride]	
410 nM	CCc1cc(Nc2nccn3c(-c4ccc(OC)c(F)c4F)cnc23)ccc1C(=O)NCC(C)CNC(=O)[C@@H](N)CNC(=N)N (mixture of isomers) [Example 408, rac-N-(3-((R)-2-amino-3-guanidinopropanamido)-2-methylpropyl)-4-((3-(2,3-difluoro-4-methoxyphenyl)imidazo[1,2-a]pyrazin-8-yl)amino)-2-ethylbenzamide diformate]	
350 nM	CCc1cc(Nc2nccn3c(-c4ccc(OC)c(F)c4F)cnc23)ccc1C(=O)NCC(N)CO (centres unmarked) [Example 525, N-(2-amino-3-hydroxypropyl)-4-((3-(2,3-difluoro-4-methoxyphenyl)imidazo[1,2-a]pyrazin-8-yl)amino)-2-ethylbenzamide hydrochloride]	
